One experiment concerns P-815. Put plainly: In vitro activity in mouse leukemic cell line P-815. The format is cell-based. Particulars: P815, P-815, in vitro, read-out: ID50 (the source's name). An excerpt:
(§1) CNUCLEOSIDES IN MOUSE AND HUMAN LEUKYMIC CELL LINES
(§2) It is noted that the first compound in Table 1 is the compound reported in Lim et al (supra).

The next experiment has as its system HL-60. Nature of the experiment: In vitro activity in human leukemic cell line HL-60. The format is cell-based. The conditions noted are these: HL-60, in vitro, read-out: ID50 (the source's name).
Text: as §1, §2

The test system of a further experiment is ALL-CCRF-CEM. Put plainly: In vitro activity in human leukemic cell line ALL-CCRF-CEM. Particulars: read-out: ID50 (the source's name). The format is cell-based.
Text: as §1, §2

In the next experiment the test system is RAJI. Put plainly: In vitro activity in human leukemic cell line RAJI. The format is cell-based. Particulars: read-out: ID50 (the source's name).
Text: as §1, §2

The subject of another experiment is L-1210. Nature of the experiment: In vitro activity in mouse leukemic cell line L-1210. The conditions noted are these: L1210, L-1210, in vitro, read-out: ID50 (the source's name). The format is cell-based.
Text: as §1, §2

In another experiment the test system is leukemic cells. Nature of the experiment: Anti-leukemic / antitumor activity using usual techniques of the art (summary statements). Particulars: in words. The format is cell-based, mouse and human.
Text: as §2

Another experiment deals with P-815/0. Put plainly: In vivo activity of C-nucleosides in mice, P-815/0 line.
Text: (§3) IN VIVO ACTIVITY OF CNUCLEOSIDES IN MICE
as §2

The subject of the next experiment is L-1210/0. Nature of the experiment: In vivo activity of C-nucleosides in mice, L-1210/0 line.
Text: as §3, §2

For another experiment, the system named is L-1210/MP. Put plainly: In vivo activity of C-nucleosides in mice, L-1210/MP line. The conditions noted are these: Q4D × 3,D1 @ 0.4 MG/KG.
Text: as §3, §2

The test system of a further experiment is P-815/ARA C. Nature of the experiment: In vivo activity of C-nucleosides in mice, P-815/ARA C line.
Text: as §3, §2

This is an account of results in US4584369A, “Anti-leukemic beta-glycosyl C-nucleosides” (Sloan-Kettering Institute for Cancer Research, priority 1984, dated 1986).

Converted amounts (≈) assume the structure as drawn. Bounds are passed on as bounds.

Take `OC[C@H]1O[C@@H](c2c[nH]c3c(=S)[nH]cnc23)[C@H](O)[C@@H]1O` [X = NH, R1 = SH, R2 = H]: the IC50 in the experiment with P-815 was 5.6 µg/mL (≈ 19.8 µM).
`O=c1[nH]cnc2c([C@@H]3O[C@H](CO)[C@@H](O)[C@H]3O)c[nH]c12` [X = NH, R1 -- OH, R2 = H, reference compound]: the IC50 in the experiment on HL-60 was over 100 µg/mL; in the experiment on P-815, over 10 µg/mL; with ALL-CCRF-CEM, over 100 µg/mL; in the experiment on RAJI, over 100 µg/mL; in the experiment on L-1210 it was over 100 µg/mL. Besides, the “antitumor / anti-leukemic activity” value was “essentially no antitumor activity” in the experiment with leukemic cells (listed as X--NH, R1 =OH) and “lack of activity” with leukemic cells (listed as first compound in Table 1).
Regarding `O=c1[nH]cnc2c([C@@H]3O[C@H](CO)[C@@H](O)[C@H]3O)csc12` [X = S, R1 = OH, R2 = H, 7-(β-D-Ribofuranosyl)-3H-4-oxo-thieno[3,2-d]pyrimidine], the IC50 was determined as 0.4 µg/mL (≈ 1.41 µM) with HL-60; 2.5 µg/mL (≈ 8.79 µM) in the experiment with P-815; 0.9 µg/mL (≈ 3.17 µM) in the experiment on ALL-CCRF-CEM; 4.2 µg/mL (≈ 14.8 µM) in the experiment on RAJI; 3.3 µg/mL (≈ 11.6 µM) with L-1210.
With `CSc1ncnc2c([C@@H]3O[C@H](CO)[C@@H](O)[C@H]3O)csc12` [X = S, R1 = SMe, R2 = H, 7-(β-D-Ribofuranosyl)-4-methylthio-thieno[3,2-d]pyrimidine], the IC50 was 0.008 µg/mL (≈ 0.0254 µM) in the experiment with HL-60; 0.03 µg/mL (≈ 0.0954 µM) in the experiment on P-815; 0.006 µg/mL (≈ 0.0191 µM) with ALL-CCRF-CEM; 0.03 µg/mL (≈ 0.0954 µM) with RAJI; 0.07 µg/mL (≈ 0.223 µM) with L-1210. Also, the “% ILS” value is given as 56.3% in the experiment with P-815/0 (Q4D × 4,D1 @ 40 MG/KG) and 71.4% in the experiment with P-815/0 (QD × 2/Q2D × 3 @ 60 MG/KG).
On to `Nc1ncnc2c([C@@H]3O[C@H](CO)[C@@H](O)[C@H]3O)csc12` [X = S, R1 = NH2, R2 = H, 7-(β-D-ribofuranosyl)-4-amino-thieno[3,2-d]pyrimidine], for which the IC50 was 0.0005 µg/mL (≈ 0.00176 µM) with HL-60; 0.0003 µg/mL (≈ 0.00106 µM) in the experiment with P-815; 0.0005 µg/mL (≈ 0.00176 µM) in the experiment with ALL-CCRF-CEM; 0.002 µg/mL (≈ 0.00706 µM) in the experiment with RAJI; 0.0006 µg/mL (≈ 0.00212 µM) in the experiment with L-1210.
As to `Nc1nc[nH]c2c([C@@H]3O[C@H](CO)[C@@H](O)[C@H]3O)cnc1-2` [X = NH, R1 = NH2, R2 = H, 7-(β-D-Ribofuranosyl)-4-amino-pyrrolo[3,2-d]pyrimidine], the IC50 is 0.0003 µg/mL (≈ 0.00113 µM) in the experiment on HL-60; 0.001 µg/mL (≈ 0.00376 µM) in the experiment on P-815; 0.0008 µg/mL (≈ 0.003 µM) in the experiment on ALL-CCRF-CEM; 0.002 µg/mL (≈ 0.00751 µM) in the experiment on RAJI; 0.0008 µg/mL (≈ 0.003 µM) with L-1210. The “% ILS” value with L-1210/0 (Q4D × 3,D1 @ 0.25 MG/KG) was found to be 17.0%; in the experiment on L-1210/0 (QD × 5,D1 @ 0.5 MG/KG), 9.1%; in the experiment on L-1210/MP, 71.8%; with P-815/ARA C (Q4D × 3,D1 @ 0.4 MG/KG), 19.8%; with P-815/ARA C (Q4D × 3,D1 @ 0.7 MG/KG), 30.8%.
Consider `OC[C@H]1O[C@@H](c2csc3c(=S)[nH]cnc23)[C@H](O)[C@@H]1O` [X = S, R1 = SH, R2 = H, 7-(β-D-ribofuranosyl)-3H-4-thiono-thieno[3,2-d]pyrimidine], for which the IC50 is 0.4 µg/mL (≈ 1.33 µM) in the experiment with HL-60; 0.5 µg/mL (≈ 1.66 µM) in the experiment with P-815; 1.6 µg/mL (≈ 5.33 µM) in the experiment with ALL-CCRF-CEM; 0.9 µg/mL (≈ 3 µM) with RAJI; 0.6 µg/mL (≈ 2 µM) in the experiment with L-1210.
For `CSc1ncnc2c([C@@H]3O[C@H](CO)[C@@H](O)[C@H]3O)c[nH]c12` [X = NH, R1 = SMe, R2 = H], the IC50 with P-815 was determined as 0.3 µg/mL (≈ 1.01 µM).
